What all share (format): functional, Homo sapiens
What all share (parameters): dose or concentration left out as unconfirmed

The test system of test [1] is Colon cancer organoid. Kind of test: Image-based profiling of donated chemical probes and chemogenomic kinase set in O06 CRC organoid. Image analysis is performed on the sum area metric, and the data were normalized to the DMSO control. After imaging the organoid viability is measured using the OneGloEX Luciferase Assay System. The normalized viability data and sum area are reported.

Test [2] deals with Colon cancer organoid. Kind of test: Image-based profiling of donated chemical probes and chemogenomic kinase set in O21 CRC organoid. Image analysis is performed on the sum area metric, and the data were normalized to the DMSO control. After imaging the organoid viability is measured using the OneGloEX Luciferase Assay System. The normalized viability data and sum area are reported.

Test [3] relates to Colon cancer organoid. Nature of the test: Image-based profiling of donated chemical probes and chemogenomic kinase set in O09 CRC organoid. Image analysis is performed on the sum area metric, and the data were normalized to the DMSO control. After imaging the organoid viability is measured using the OneGloEX Luciferase Assay System. The normalized viability data and sum area are reported.

Where “and” joins values, the source holds several entries; their conditions need not be identical. Equal values may be shown once.

Take `CN(C)C(=O)c1ccc(-c2cc(C(=O)N[C@@H]3CCc4ccccc43)no2)cc1O`: the “Cell Viability” value in test [1] (Replication number 1) is 75.5057% and 77.557%; in test [1] (Replication number 2) it was 96.6364% and 86.0329%; in test [2] (Replication number 1) it was 107.545% and 128.739%; in test [2] (Replication number 2), 101.745% and 90.2148%; in test [3] (Replication number 1) it was 44.4352% and 76.507%; in test [3] (Replication number 2), 55.2789% and 66.994%.
In the case of `CN(C)C(=O)c1sc2nc(N3CCC(S(C)(=O)=O)CC3)cc(C(F)(F)F)c2c1N` [BI-5026], the “Cell Viability” value in test [1] (Replication number 1) was 118.242% and 106.64%; in test [1] (Replication number 2), 81.5646% and 70.3988%; in test [2] (Replication number 1) it was 97.3% and 81.8479%; in test [2] (Replication number 2), 110.845% and 100.952%; in test [3] (Replication number 1) it was 136.068% and 99.7874%; in test [3] (Replication number 2), 102.802% and 111.221%.
For the compound `Cl.Cl.c1ccc([C@@H]2C[C@H]2NC2CCNCC2)cc1`, the “Cell Viability” value in test [1] (Replication number 1) was 175.971% and 140.859%; in test [1] (Replication number 2), 170.528% and 119.251%; in test [2] (Replication number 1) it was 139.321% and 134.03%; in test [2] (Replication number 2) it was 128.492% and 116.527%; in test [3] (Replication number 1), 165.336% and 102.473%; in test [3] (Replication number 2), 183.388% and 100.348%.
Take `O=C(NOC[C@H](O)CO)c1ccc(F)c(F)c1Nc1ccc(I)cc1F` [MIRDAMETINIB]: the “Cell Viability” value in test [1] (Replication number 1) was 3.1671% and 12.2187%; in test [1] (Replication number 2), 2.358% and 7.568%; in test [2] (Replication number 1), 22.725% and 32.892%; in test [2] (Replication number 2), 19.7018% and 35.9842%; in test [3] (Replication number 1), 6.019% and 17.678%; in test [3] (Replication number 2) it was 3.596% and 12.9307%.
`CN(C)CCCOc1ccc(-c2cc(NCCCn3cccn3)nc(S(C)(=O)=O)n2)cc1`: the “Cell Viability” value in test [1] (Replication number 1) is 164.335% and 134.819%; in test [1] (Replication number 2) it was 201.31% and 140.998%; in test [2] (Replication number 1) it was 93.735% and 87.002%; in test [2] (Replication number 2), 96.544% and 91.8258%; in test [3] (Replication number 1) it was 107.413% and 76.7388%; in test [3] (Replication number 2) it was 121.884% and 89.5154%.
In the case of `CNC(=O)c1ccc(Nc2ncc(C(F)(F)F)c(NCc3nccnc3N(C)S(C)(=O)=O)n2)cc1` [DEFACTINIB], the “Cell Viability” value in test [1] (Replication number 1) was 124.45% and 120.141%; in test [1] (Replication number 2), 102.609% and 90.0207%; in test [2] (Replication number 1), 89.1869% and 86.74%; in test [2] (Replication number 2) it was 98.5669% and 117.347%; in test [3] (Replication number 1), 29.7376% and 36.5543%; in test [3] (Replication number 2), 24.312% and 22.1979%.
Consider `O=C(c1ccc(C(=O)N2CCC(N3CCCC3)CC2)c(Nc2ccccc2)c1)N1CCC(N2CCCC2)CC1`, for which the “Cell Viability” value in test [1] (Replication number 1) was 185.477% and 131.195%; in test [1] (Replication number 2), 168.44% and 129.527%; in test [2] (Replication number 1) it was 116.035% and 118.746%; in test [2] (Replication number 2), 94.3605% and 99.3437%; in test [3] (Replication number 1), 81.7706% and 92.0402%; in test [3] (Replication number 2), 143.807% and 112.037%.
For `COc1nc2ccc([C@@](O)(c3ccccc3)C3CCN(C(C)=O)CC3)cc2c(Cl)c1Cc1ccc(-n2cccn2)cc1` [JNJ-54119936], the “Cell Viability” value in test [1] (Replication number 1) was 95.4238% and 127.913%; in test [1] (Replication number 2), 99.5018% and 98.8422%; in test [2] (Replication number 1), 91.3508% and 107.676%; in test [2] (Replication number 2), 118.142% and 99.7424%; in test [3] (Replication number 1) it was 195.654% and 100.967%; in test [3] (Replication number 2), 202.641% and 113.341%.
For the compound `COc1cc(Nc2nccc(-c3cnn4nc(OC)ccc34)n2)cc(C(F)(F)F)c1`, the “Cell Viability” value in test [1] (Replication number 1) was 24.0396% and 55.0969%; in test [1] (Replication number 2), 25.0029% and 51.7745%; in test [2] (Replication number 1), 43.8285% and 81.0407%; in test [2] (Replication number 2) it was 69.763% and 98.0422%; in test [3] (Replication number 1), 18.7716% and 22.0247%; in test [3] (Replication number 2), 18.9351% and 21.2081%.
In the case of `CC1=C(C#N)C(c2ccc3[nH]nc(C)c3c2)C(C#N)=C(C)N1` [BAY-474], the “Cell Viability” value in test [1] (Replication number 1) is 114.031% and 109.602%; in test [1] (Replication number 2), 118.528% and 111.578%; in test [2] (Replication number 1), 98.4176% and 90.2329%; in test [2] (Replication number 2) it was 78.5633% and 94.3878%; in test [3] (Replication number 1), 97.0801% and 99.3894%; in test [3] (Replication number 2), 77.9563% and 84.1183%.
On to `CN(C)CCOc1ccc(-c2nc(-c3ccncc3)c(-c3ccc4c(c3)CC/C4=N\O)[nH]2)cc1` [SB590885], for which the “Cell Viability” value was 179.76% and 135.095% in test [1] (Replication number 1); 115.548% and 114.756% in test [1] (Replication number 2); 87.754% and 100.348% in test [2] (Replication number 1); 97.8507% and 97.8769% in test [2] (Replication number 2); 91.6254% and 70.3132% in test [3] (Replication number 1); 62.6087% and 63.1686% in test [3] (Replication number 2).
In the case of `CC1=C(C#N)C(c2ccc3c(c2)c(NC(=O)c2ccccc2C)nn3C)C(C#N)=C(C)N1` [BAY-974], the “Cell Viability” value in test [1] (Replication number 1) was 84.6822% and 93.2084%; in test [1] (Replication number 2) it was 111.085% and 112.763%; in test [2] (Replication number 1) it was 90.5008% and 96.0543%; in test [2] (Replication number 2), 89.8417% and 122.959%; in test [3] (Replication number 1), 82.726% and 84.3377%; in test [3] (Replication number 2) it was 101.367% and 119.752%.
Turning to `Cc1noc(C)c1-c1cnc2c(-c3ccc(C(=O)O)cc3)cn([C@@H](C)c3ccccn3)c2c1` [PLX-51107], the “Cell Viability” value in test [1] (Replication number 1) is 28.5018% and 57.9866%; in test [1] (Replication number 2) it was 31.105% and 59.0281%; in test [2] (Replication number 1), 101.544% and 130.503%; in test [2] (Replication number 2) it was 74.8766% and 126.73%; in test [3] (Replication number 1), 42.9449% and 37.558%; in test [3] (Replication number 2), 38.2971% and 35.6351%.
Regarding `CNC(=O)c1cc(C(=O)N[C@H]2[C@@H]3COC[C@@H]32)cc2c1O[C@@H](CF)[C@@H]2c1ccccc1` [GSK943], the “Cell Viability” value in test [1] (Replication number 1) is 114.013% and 124.372%; in test [1] (Replication number 2), 80.0063% and 92.9841%; in test [2] (Replication number 1), 93.124% and 115.133%; in test [2] (Replication number 2), 103.782% and 108.09%; in test [3] (Replication number 1), 64.3424% and 103.726%; in test [3] (Replication number 2), 87.7458% and 93.3783%.
As to `CC1=C(C)C(=O)C(C(C)(C)CC(=O)N(CCCCSC[C@H]2O[C@@H](n3cnc4c(N)ncnc43)[C@@H]3OC(C)(C)O[C@@H]32)Cc2cccc(-c3ccc(Cl)cc3)c2)=C(C)C1=O`, the “Cell Viability” value in test [1] (Replication number 1) is 141.238% and 103.893%; in test [1] (Replication number 2), 153.713% and 129.049%; in test [2] (Replication number 1), 97.336% and 122.861%; in test [2] (Replication number 2), 82.8638% and 97.7327%; in test [3] (Replication number 1), 93.185% and 86.476%; in test [3] (Replication number 2) it was 68.1346% and 85.8093%.
For `CC1=C(C)C(=O)C(C(C)(C)CC(=O)N(CCCCSC[C@H]2O[C@@H](n3cnc4c(N)ncnc43)[C@H](O)[C@@H]2O)Cc2cccc(-c3ccc(Cl)cc3)c2)=C(C)C1=O`, the “Cell Viability” value in test [1] (Replication number 1) is 167.397% and 142.309%; in test [1] (Replication number 2) it was 129.695% and 107.541%; in test [2] (Replication number 1), 85.391% and 116.982%; in test [2] (Replication number 2) it was 82.6503% and 80.5489%; in test [3] (Replication number 1), 154.166% and 104.56%; in test [3] (Replication number 2), 134.087% and 102.344%.
For `C[C@H]1CCCN1Cc1nc2cc(NC(=O)c3ccc4cnccc4c3)ccc2[nH]1`, the “Cell Viability” value in test [1] (Replication number 1) is 103.275% and 86.0134%; in test [1] (Replication number 2), 127.654% and 99.8938%; in test [2] (Replication number 1) it was 78.6097% and 94.644%; in test [2] (Replication number 2), 77.6333% and 81.0859%; in test [3] (Replication number 1) it was 74.8227% and 68.6244%; in test [3] (Replication number 2), 83.8481% and 67.5641%.
Consider `COc1cc(C(=O)O)ncc1C#Cc1ccccc1NS(=O)(=O)c1cccc2c(N(C)C)ccnc12` [MSC-0516], for which the “Cell Viability” value in test [1] (Replication number 1) was 100.098% and 102.024%; in test [1] (Replication number 2), 96.9075% and 85.7761%; in test [2] (Replication number 1) it was 88.3697% and 90.0327%; in test [2] (Replication number 2), 92.8274% and 92.794%; in test [3] (Replication number 1), 106.133% and 95.2857%; in test [3] (Replication number 2) it was 130.736% and 112.411%.
Take `COc1cc(-c2cn(C)c(=O)c3cnccc23)c(OC)cc1CN(C)C`: the “Cell Viability” value in test [1] (Replication number 1) is 102.497% and 103.651%; in test [1] (Replication number 2), 129.558% and 87.7058%; in test [2] (Replication number 1), 113.788% and 114.043%; in test [2] (Replication number 2), 122.408% and 119.749%; in test [3] (Replication number 1), 64.3431% and 76.9706%; in test [3] (Replication number 2), 65.7343% and 74.6912%.
For `O=C(CNCc1cc2ccccc2[nH]1)N[C@H]1CC[C@@H](c2nc3ccccc3[nH]2)CC1`, the “Cell Viability” value is 105.609% and 101.043% in test [1] (Replication number 1); 76.5637% and 75.4756% in test [1] (Replication number 2); 73.7634% and 95.331% in test [2] (Replication number 1); 89.7869% and 102.483% in test [2] (Replication number 2); 116.461% and 89.5122% in test [3] (Replication number 1); 85.4342% and 106.091% in test [3] (Replication number 2).
With `Cn1c(=O)[nH]c2cc(N3C(=O)c4cccc5c(CCCO)ccc(c45)C3=O)ccc21`, the “Cell Viability” value in test [1] (Replication number 1) was 78.0892% and 58.7114%; in test [1] (Replication number 2) it was 114.692% and 105.151%; in test [2] (Replication number 1), 119.202% and 111.104%; in test [2] (Replication number 2) it was 123.504% and 100.955%; in test [3] (Replication number 1), 172.196% and 101.777%; in test [3] (Replication number 2), 101.158% and 94.3617%.

The values above are taken from ChEMBL document CHEMBL5724558, “Image-based profiling of drug vulnerabilities in CRC organoids” (2024).
